Test results as given in patent US11319331B2, “Probe for selective detection of hypochlorous acid (HOCl) under physiological condition, and related methods” (Council of Scientific & Industrial Research, priority 2017, dated 2022).

Columns and labels:
[1] = S/N=3 where stated; cited from earlier work
[2] = Protocol: (§1) Unless and otherwise mentioned, 10 mM and pH 7.2 solution of aq. PBS buffer was used for all spectroscopic studies. All reactive Oxygen species and nitrogen species solutions of 1×10^-2 M were prepared in PBS having pH 7.2 and used with appropriate dilution. All luminescence measurements were done using λEx=550 nm with an emission slit width of 2/2 nm. For all biological studies, 0.6% DMSO in DMEM media was used.
The detection limit was calculated based on the fluorescence titration.

[3] = SF-1 10 μM, 2 mM HOCl, PBS-acetonitrile (9:1, v/v), pH 7.2, 37° C.
Protocol: Accordingly, all studies are carried out at physiological relevant pH […].
as §1

RAW 264.7 cells = assay: MTT assay, in vitro cytotoxicity / cell viability; conditions: read-out: IC50 (MTT cell viability), treated 24 hours

| Molecule | detection limit for HOCl/HClO (literature) [1] [nM] | detection limit for HOCl ([2]; aq. PBS buffer-acetonitrile (9:1, v/v), 3 s method) [nM] | Detection Limit for HOCl (DL=K*Sb1/S, K=3) ([2]; slope 2.50×109, Sb1 3.59) [nM] | enhancement of luminescence intensity with increasing dose of HOCl ([2]; λEm Max 580 nm, λExt 540 nm) [fold] | time to completion of reaction with HOCl [3] [min] | IC50 (RAW 264.7 cells) [µM] |
| --- | --- | --- | --- | --- | --- | --- |
| CC1=CC(C)=[N+]2C1=C(CCc1[nH]c(C)cc1C)c1c(C)cc(C)n1[B-]2(F)F [BClO] | 0.56 |  |  |  |  |  |
| E)-4-(2-(5,5-difluoro-1,7,9-trimethyl-10-phenyl-5H-5λ^4,6λ^4-dipyrrolo[1,2-c:2′,1′-f][1,3,2]diazaborinin-3-yl)vinyl)benzene-1,2-diol [SF-1] |  | 4.3 | 4.3 | 20 | ≤ 15 | > 150 |
